Our source for the IC50 values is patent publication US20240132464A1, “HETEROCYCLIC COMPOUNDS AS E3 LIGASE INHIBITORS” (Accutar Biotechnology Inc., priority 2022, published 2024).

The structures appear in SMILES notation.

For this assay, the target named is T1, GID4 (Uniprot ID: Q81VV7, residues 124-289) (Homo sapiens, UniProt Q8IVV7).
T1 construct: GID4 (Uniprot ID: Q81VV7, residues 124-289)
T1 sequence (Q8IVV7 124-289): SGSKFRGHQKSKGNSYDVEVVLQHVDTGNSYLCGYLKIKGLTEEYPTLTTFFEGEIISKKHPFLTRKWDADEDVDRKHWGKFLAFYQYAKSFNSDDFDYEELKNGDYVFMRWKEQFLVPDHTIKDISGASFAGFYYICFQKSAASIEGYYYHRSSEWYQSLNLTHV
The assay can be described thus: GID4 competitive binding assay (AlphaScreen, GID4/degron peptide PGLW). The conditions noted are these: 24 nM GID4, 48 nM biotinylated degron peptide PGLW, 4° C., read-out: IC50 (Inhibition of GID4/Degron binding by test compounds). The gist of the method: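 Displacement of biotin-tagged degron tetrapeptide PGLW (48 nM) from C-terminally 6His-tagged GID4 124-289 (24 nM) read by AlphaScreen proximity signal. Compound incubation 2 h, then beads 1 h, all at 4 °C, pH 7.5, 2% DMSO final; background-corrected inhibition fitted with variable slope for IC50.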
For orientation: In Alpha technology, singlet oxygen from a donor bead excites a nearby acceptor bead.
In the case of `CC(C)c1cc(N2CC[C@@H](F)[C@@H](c3ccccc3Br)C2)nc(N)n1` [Compound 221, 4-((3S,4R)-3-(2-bromophenyl)-4-fluoropiperidin-1-yl)-6-isopropylpyrimidin-2-amine], the IC50 was < 0.5 µM.
With `CC(=O)N1CCN(c2cc(N)nc(N)n2)C[C@@H]1c1ccccc1Br` (stereo in doubt) [Compound 59, (S/R)-1-(2-(2-bromophenyl)-4-(2,6-diaminopyrimidin-4-yl)piperazin-1-yl)ethan-1-one], the IC50 was > 5 µM.
The value for `CN(C)[C@H]1CC[C@H](NC(=O)c2ccc(-c3cc(O)c4ncccc4c3)cc2)CC1` [Compound 287, N-(trans-4-(dimethylamino)cyclohexyl)-4-(8-hydroxyquinolin-6-yl)benzamide] was < 0.5 µM; that for `Nc1nc(N2CCNC(c3ccccc3Br)C2)c2cc[nH]c2n1` (single isomer, unassigned) [Compound 56, (R/S)-4-(3-(2-bromophenyl)piperazin-1-yl)-7H-pyrrolo[2,3-d]pyrimidin-2-amine] was 0.5 to 5 µM.
The result for `Nc1nc2c(c(N3CCCC(c4cnc5ccccn45)C3)n1)CCCN2` (stereo not shown) [Compound 88, 4-(3-(imidazo[1,2-a]pyridin-3-yl)piperidin-1-yl)-5,6,7,8-tetrahydropyrido[2,3-d]pyrimidin-2-amine] reads > 5 µM.
On to `CN(C)CCCNC(=O)c1ncc(-c2cc(O)c3ncccc3c2)s1` [Compound 272, N-(3-(dimethylamino)propyl)-5-(8-hydroxyquinolin-6-yl)thiazole-2-carboxamide], for which the IC50 is < 0.5 µM.
The value for `Nc1cc(N2CCO[C@](CO)(c3ccccc3Br)C2)nc(N)n1` (stereo in doubt) [Compound 36, (R/S)-(2-(2-bromophenyl)-4-(2,6-diaminopyrimidin-4-yl)morpholin-2-yl)methanol] was > 5 µM; that for `CN(C)CCCNC(=O)c1ccc(-c2cc(O)c3ncccc3c2)c(F)c1` [Compound 325, N-(3-(dimethylamino)propyl)-3-fluoro-4-(8-hydroxyquinolin-6-yl)benzamide] was 0.5 to 5 µM.
The result for `Nc1nc(C2CCC2)cc(N2CCCC(c3ccn[nH]3)C2)n1` (stereo not shown) [Compound 212, 4-(3-(1H-pyrazol-5-yl)piperidin-1-yl)-6-cyclobutylpyrimidin-2-amine] reads > 5 µM.
The result for `Nc1cc(N2CCNC(c3ccccc3C(F)(F)F)C2)nc(N)n1` (stereo not shown) [Compound 54, 6-(3-(2-(trifluoromethyl)phenyl)piperazin-1-yl)pyrimidine-2,4-diamine] reads < 0.5 µM; that for `CC(C)c1nc(N)cc(N2CCCC(c3cnc4ccccn34)C2)n1` (single isomer, unassigned) [Compound 141, R or S-6-(3-(imidazo[1,2-a]pyridin-3-yl)piperidin-1-yl)-2-isopropylpyrimidin-4-amine], < 0.5 µM.
For `CC(C)c1cc(Nc2cccc(-c3cnccn3)c2)nc(N)n1` [Compound 198, 6-isopropyl-N4-(3-(pyrazin-2-yl)phenyl)pyrimidine-2,4-diamine], the IC50 was > 5 µM.
The result for `Nc1nccc2ccc(Cc3cccc(C(=O)N4CCCC4)c3)cc12` [Compound 343, (3-((1-aminoisoquinolin-7-yl)methyl)phenyl)(pyrrolidin-1-yl)methanone] reads > 5 µM; that for `CC(C)c1nc(N2CCCC(c3cnc4ccccn34)C2)c2cc[nH]c2n1` (stereo not shown) [Compound 374, 4-(3-(imidazo[1,2-a]pyridin-3-yl)piperidin-1-yl)-2-isopropyl-7H-pyrrolo[2,3-d]pyrimidine], < 0.5 µM.
The result for `Nc1nc(N2CCO[C@@H](c3ccccc3Br)C2)c2cc[nH]c2n1` (racemic) [Compound 40, (S/R)-4-(2-(2-bromophenyl)morpholino)-7H-pyrrolo[2,3-d]pyrimidin-2-amine] reads 0.5 to 5 µM; that for `Nc1nc(NC2CC2)cc(N2CCN(CCO)[C@@H](c3ccccc3Br)C2)n1` (racemic) [Compound 45, (S/R)-2-(4-(2-amino-6-(cyclopropylamino)pyrimidin-4-yl)-2-(2-bromophenyl)piperazin-1-yl)ethan-1-ol], < 0.5 µM.
The value for `CNc1cc(N2CCNC(c3cnc4ccccn34)C2)nc(N)n1` (stereo not shown) [Compound 92, 6-(3-(imidazo[1,2-a]pyridin-3-yl)piperazin-1-yl)-N4-methylpyrimidine-2,4-diamine] was 0.5 to 5 µM; that for `Cn1cc(CNC(=O)c2n[nH]c3ccc(-c4ccc5ccnc(N)c5c4)cc23)cn1` [Compound 328, 5-(1-aminoisoquinolin-7-yl)-N-((1-methyl-1H-pyrazol-4-yl)methyl)-1H-indazole-3-carboxamide] was < 0.5 µM; that for `CNc1nc(C(C)C)cc(N2CCCC(c3cnc4ccccn34)C2)n1` (stereo not shown) [Compound 134, 4-(3-(imidazo[1,2-a]pyridin-3-yl)piperidin-1-yl)-6-isopropyl-N-methylpyrimidin-2-amine] was < 0.5 µM.
For `CN(C)CCNC(=O)c1ccc(-c2cc(O)c3ncncc3c2)cc1` [Compound 270, N-(2-(dimethylamino)ethyl)-4-(8-hydroxyquinazolin-6-yl)benzamide], the IC50 is < 0.5 µM.
Consider `Nc1cc(N2CCOC(c3ccccc3C(F)(F)F)C2)nc(N)n1` (stereo not shown) [Compound 29, 6-(2-(2-(trifluoromethyl)phenyl)morpholino)pyrimidine-2,4-diamine], for which the IC50 was < 0.5 µM.
Take `CN(C)CCNC(=O)c1csc2ccc(-c3ccc4ccnc(N)c4c3)cc12` [Compound 355, 5-(1-aminoisoquinolin-7-yl)-N-(2-(dimethylamino)ethyl)benzo[b]thiophene-3-carboxamide]: the IC50 lay in the range of 0.5 to 5 µM.
The result for `CC(C)c1cc(NCCc2c[nH]c3ccccc23)nc(N)n1` [Compound 203, N4-(2-(1H-indol-3-yl)ethyl)-6-isopropylpyrimidine-2,4-diamine] reads > 5 µM; that for `CN1CCN(C(=O)c2ccc(Br)c(C3CN(c4cc(N)nc(N)n4)CCN3)c2)CC1` (single isomer, unassigned) [Compound 15, (R/S)-(4-bromo-3-(4-(2,6-diaminopyrimidin-4-yl)piperazin-2-yl)phenyl)(4-methylpiperazin-1-yl)methanone], < 0.5 µM; that for `Cn1nccc1C1CCCN(c2nc(N)nc3c2CCC3)C1` (stereo not shown) [Compound 215, 4-(3-(1 methyl-1H-pyrazol-5-yl)piperidin-1-yl)-6,7-dihydro-5H-cyclopenta[d]pyrimidin-2-amine], > 5 µM.
Regarding `CC(C)c1cc(N2CCCC(c3cnc4ccncn34)C2)nc(N)n1` (stereo not shown) [Compound 239, 4-(3-(imidazo[1,2-c]pyrimidin-3-yl)piperidin-1-yl)-6-isopropylpyrimidin-2-amine], the IC50 was 0.5 to 5 µM.
For the compound `Nc1nc(NC2CC2)cc(N2CCO[C@H](c3ccccc3Br)C2)n1` (stereo in doubt) [Compound 97, (R/S)-6-(2-(2-bromophenyl)morpholino)-N4-cyclopropylpyrimidine-2,4-diamine], the IC50 is > 5 µM.
The value for `c1ccn2c(C3CCCN(c4ncnc5c4CCCN5)C3)cnc2c1` (stereo not shown) [Compound 58, 4-(3-(imidazo[1,2-a]pyridin-3-yl)piperidin-1-yl)-5,6,7,8-tetrahydropyrido[2,3-d]pyrimidine] was 0.5 to 5 µM; that for `CN(C)CCCNC(=O)c1ccc2c(-c3ccc4ccnc(N)c4c3)csc2c1` [Compound 357, 3-(1-aminoisoquinolin-7-yl)-N-(3-(dimethylamino)propyl)benzo[b]thiophene-6-carboxamide] was 0.5 to 5 µM; that for `Nc1nc(NC2CC2)cc(N2CCNC(c3ccccc3Br)C2)n1` (single isomer, unassigned) [Compound 121, (R/S)-6-(3-(2-bromophenyl)piperazin-1-yl)-N4-cyclopropylpyrimidine-2,4-diamine] was > 5 µM.
As for `CN1CCN(c2cc(NCC3CC3)nc(N)n2)CC1c1ccccc1Br` (single isomer, unassigned) [Compound 99, (R/S)-6-(3-(2-bromophenyl)-4-methylpiperazin-1-yl)-N4-(cyclopropylmethyl)pyrimidine-2,4-diamine], the IC50 is < 0.5 µM.
The value for `Nc1nc(NC2CC2)nc(N2CCN[C@H](c3ccccc3Br)C2)n1` (stereo in doubt) [Compound 64, (R/S)-6-(3-(2-bromophenyl)piperazin-1-yl)-N2-cyclopropyl-1,3,5-triazine-2,4-diamine] was > 5 µM; that for `Nc1cc(N2CCN(CCO)[C@@H](c3ccccc3Br)C2)nc(N)n1` (stereo in doubt) [Compound 66, (S/R)-2-(2-(2-bromophenyl)-4-(2,6-diaminopyrimidin-4-yl)piperazin-1-yl)ethan-1-ol] was > 5 µM; that for `CC(C)c1cc(N2CCNC(c3nnc[nH]3)C2)nc(N)n1` (stereo not shown) [Compound 204, 4-(3-(4H-1,2,4-triazol-3-yl)piperazin-1-yl)-6-isopropylpyrimidin-2-amine] was > 5 µM.
The value for `CN(C)CCCNC(=O)c1ccc(-c2cc(O)c3nccc(N)c3c2)cc1` [Compound 265, 4-(4-amino-8-hydroxyquinolin-6-yl)-N-(3-(dimethylamino)propyl)benzamide] was 0.5 to 5 µM; that for `CN(C)CCCNC(=O)c1cc(-c2cc(O)c3ncccc3c2)c[nH]1` [Compound 269, N-(3-(dimethylamino)propyl)-4-(8-hydroxyquinolin-6-yl)-1H-pyrrole-2-carboxamide] was < 0.5 µM; that for `Nc1nc(C2CC2)cc(N2CCCC(c3ccn[nH]3)C2)n1` (stereo not shown) [Compound 211, 4-(3-(1H-pyrazol-5-yl)piperidin-1-yl)-6-cyclopropylpyrimidin-2-amine] was > 5 µM.
